Source: publication PMC7265341, “Quantifying CDK inhibitor selectivity in live cells” (Nature Communications, 2020)
Where two headings read alike, the source gives them in different places.

Key:
[1] = target: CDK8/Cyclin C (Homo sapiens, UniProt P49336); experiment: NanoBRET live-cell target engagement, NanoLuc-CDK8/Cyclin C in HEK-293; format: binding; details: read-out: Inhibition at 10µM (%), CDK8/C
[2] = target: CDK9/Cyclin K (Homo sapiens, UniProt P50750); experiment: NanoBRET live-cell target engagement, NanoLuc-CDK9/Cyclin K in HEK-293; format: binding; details: CDK9/K, read-out: Inhibition at 10µM (%)
CDK9/Cyclin K, sequence (P50750 whole entry): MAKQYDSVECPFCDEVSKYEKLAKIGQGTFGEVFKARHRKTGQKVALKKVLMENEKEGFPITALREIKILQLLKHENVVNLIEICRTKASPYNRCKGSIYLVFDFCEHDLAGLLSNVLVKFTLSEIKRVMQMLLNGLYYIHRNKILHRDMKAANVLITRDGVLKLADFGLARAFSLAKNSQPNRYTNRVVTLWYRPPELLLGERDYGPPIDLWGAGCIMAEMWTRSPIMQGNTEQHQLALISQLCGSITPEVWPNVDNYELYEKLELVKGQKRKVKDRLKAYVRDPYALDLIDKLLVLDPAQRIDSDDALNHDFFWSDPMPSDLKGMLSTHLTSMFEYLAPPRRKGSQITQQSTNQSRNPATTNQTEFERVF
CDK9/Cyclin K, sequence (O75909 whole entry partner): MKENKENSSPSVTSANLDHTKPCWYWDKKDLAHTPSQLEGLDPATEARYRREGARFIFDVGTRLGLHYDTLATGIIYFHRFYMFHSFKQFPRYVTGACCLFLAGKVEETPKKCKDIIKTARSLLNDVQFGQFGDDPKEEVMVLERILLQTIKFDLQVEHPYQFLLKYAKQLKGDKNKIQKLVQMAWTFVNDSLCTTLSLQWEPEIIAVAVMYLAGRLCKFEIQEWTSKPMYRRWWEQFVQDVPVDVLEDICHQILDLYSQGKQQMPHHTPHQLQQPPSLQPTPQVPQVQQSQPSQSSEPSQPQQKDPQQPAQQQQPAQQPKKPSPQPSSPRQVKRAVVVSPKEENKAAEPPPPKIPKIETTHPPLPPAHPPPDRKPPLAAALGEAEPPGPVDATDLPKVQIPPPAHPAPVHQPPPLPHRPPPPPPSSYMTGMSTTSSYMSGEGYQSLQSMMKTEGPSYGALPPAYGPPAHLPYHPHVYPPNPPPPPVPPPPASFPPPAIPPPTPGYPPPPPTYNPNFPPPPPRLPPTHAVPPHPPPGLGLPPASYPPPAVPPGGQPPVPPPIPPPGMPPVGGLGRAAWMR

[3] = target: T1, CDK11A/Cyclin L2 (Homo sapiens, UniProt Q9UQ88); experiment: NanoBRET live-cell target engagement, CDK11A-NanoLuc/Cyclin L2 in HEK-293; format: binding; details: read-out: Inhibition at 10µM (%), CDK11a/L2
T1 sequence (Q9UQ88 1-783): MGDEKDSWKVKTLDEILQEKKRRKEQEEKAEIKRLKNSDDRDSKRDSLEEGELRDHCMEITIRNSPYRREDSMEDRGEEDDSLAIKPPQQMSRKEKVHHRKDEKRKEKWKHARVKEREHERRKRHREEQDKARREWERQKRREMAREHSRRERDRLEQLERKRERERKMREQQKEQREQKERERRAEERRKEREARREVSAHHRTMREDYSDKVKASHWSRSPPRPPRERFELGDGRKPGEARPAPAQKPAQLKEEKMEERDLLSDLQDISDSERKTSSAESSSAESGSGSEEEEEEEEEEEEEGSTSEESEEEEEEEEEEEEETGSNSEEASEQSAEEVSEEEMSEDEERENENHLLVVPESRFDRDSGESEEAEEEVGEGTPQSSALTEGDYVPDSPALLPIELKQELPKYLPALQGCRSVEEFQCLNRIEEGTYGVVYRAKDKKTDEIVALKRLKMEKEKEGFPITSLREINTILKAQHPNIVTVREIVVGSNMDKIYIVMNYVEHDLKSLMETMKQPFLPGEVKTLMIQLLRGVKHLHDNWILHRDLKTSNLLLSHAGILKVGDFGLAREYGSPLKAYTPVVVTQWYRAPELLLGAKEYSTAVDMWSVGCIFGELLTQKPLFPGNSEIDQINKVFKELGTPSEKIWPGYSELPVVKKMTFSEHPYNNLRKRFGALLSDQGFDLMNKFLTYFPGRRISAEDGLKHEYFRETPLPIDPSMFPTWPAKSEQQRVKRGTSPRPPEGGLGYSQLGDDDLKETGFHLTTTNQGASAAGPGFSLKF

[4] = target: CDK11B/Cyclin L2 (Homo sapiens, UniProt P21127); experiment: NanoBRET live-cell target engagement, CDK11B-NanoLuc/Cyclin L2 in HEK-293; format: binding; details: read-out: Inhibition at 10µM (%), CDK11b/L2
CDK11B/Cyclin L2, sequence (P21127 1-782 isoform P21127-2): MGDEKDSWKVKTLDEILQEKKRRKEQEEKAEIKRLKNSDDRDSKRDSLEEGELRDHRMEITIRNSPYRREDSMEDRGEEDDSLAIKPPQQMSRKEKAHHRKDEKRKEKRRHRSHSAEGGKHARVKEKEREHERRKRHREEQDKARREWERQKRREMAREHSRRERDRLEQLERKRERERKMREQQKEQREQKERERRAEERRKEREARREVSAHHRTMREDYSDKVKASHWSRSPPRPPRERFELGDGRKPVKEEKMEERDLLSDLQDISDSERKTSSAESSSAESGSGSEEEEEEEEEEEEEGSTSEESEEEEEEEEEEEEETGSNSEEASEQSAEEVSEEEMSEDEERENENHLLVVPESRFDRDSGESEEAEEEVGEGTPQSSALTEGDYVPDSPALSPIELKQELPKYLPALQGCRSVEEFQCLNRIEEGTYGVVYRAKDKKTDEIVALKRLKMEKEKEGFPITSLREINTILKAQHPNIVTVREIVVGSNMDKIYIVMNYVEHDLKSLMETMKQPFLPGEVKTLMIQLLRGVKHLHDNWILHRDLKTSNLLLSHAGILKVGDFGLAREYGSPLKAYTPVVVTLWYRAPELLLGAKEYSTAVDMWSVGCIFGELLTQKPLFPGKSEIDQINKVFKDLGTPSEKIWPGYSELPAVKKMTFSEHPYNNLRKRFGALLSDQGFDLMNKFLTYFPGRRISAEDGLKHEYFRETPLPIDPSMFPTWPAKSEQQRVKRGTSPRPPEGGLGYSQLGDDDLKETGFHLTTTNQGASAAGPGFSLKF

[5] = target: CDK14/Cyclin Y (Homo sapiens, UniProt O94921); experiment: NanoBRET live-cell target engagement, CDK14-NanoLuc/Cyclin Y in HEK-293; format: binding; details: read-out: Inhibition at 10µM (%), CDK14/Y
CDK14/Cyclin Y, sequence (O94921 whole entry): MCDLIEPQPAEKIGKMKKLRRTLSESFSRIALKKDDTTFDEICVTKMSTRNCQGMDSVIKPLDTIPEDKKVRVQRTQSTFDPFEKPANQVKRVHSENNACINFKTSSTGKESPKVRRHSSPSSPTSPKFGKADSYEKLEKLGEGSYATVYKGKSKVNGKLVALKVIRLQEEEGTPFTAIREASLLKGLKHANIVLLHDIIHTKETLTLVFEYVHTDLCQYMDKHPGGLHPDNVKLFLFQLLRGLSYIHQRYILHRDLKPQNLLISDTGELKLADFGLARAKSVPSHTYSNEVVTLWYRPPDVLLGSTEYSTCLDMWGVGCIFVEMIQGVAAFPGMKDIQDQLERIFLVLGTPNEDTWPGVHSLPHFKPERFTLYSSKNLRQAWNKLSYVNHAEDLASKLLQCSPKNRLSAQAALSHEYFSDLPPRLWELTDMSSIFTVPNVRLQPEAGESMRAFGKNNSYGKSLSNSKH
CDK14/Cyclin Y, sequence (Q8ND76 whole entry partner): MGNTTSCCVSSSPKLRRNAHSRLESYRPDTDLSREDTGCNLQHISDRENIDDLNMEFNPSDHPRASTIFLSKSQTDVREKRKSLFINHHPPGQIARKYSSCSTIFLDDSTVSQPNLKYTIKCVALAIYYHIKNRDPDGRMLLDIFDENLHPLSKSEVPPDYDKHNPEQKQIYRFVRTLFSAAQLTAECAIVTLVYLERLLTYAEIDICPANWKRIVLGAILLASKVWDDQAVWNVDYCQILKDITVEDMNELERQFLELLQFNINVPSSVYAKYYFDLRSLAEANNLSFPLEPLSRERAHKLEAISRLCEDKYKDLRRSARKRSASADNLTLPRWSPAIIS

[6] = target: CDK15/Cyclin Y (Homo sapiens, UniProt Q96Q40); experiment: NanoBRET live-cell target engagement, NanoLuc-CDK15/Cyclin Y in HEK-293; format: binding; details: read-out: Inhibition at 10µM (%), CDK15/Y
[7] = target: CDK16/Cyclin Y (Homo sapiens, UniProt Q00536); experiment: NanoBRET live-cell target engagement, CDK16-NanoLuc/Cyclin Y in HEK-293; format: binding; details: read-out: Inhibition at 10µM (%), CDK16/Y
[8] = target: CDK17/Cyclin Y (Homo sapiens, UniProt Q00537); experiment: NanoBRET live-cell target engagement, CDK17-NanoLuc/Cyclin Y in HEK-293; format: binding; details: read-out: Inhibition at 10µM (%), CDK17/Y
CDK17/Cyclin Y, sequence (Q00537 whole entry): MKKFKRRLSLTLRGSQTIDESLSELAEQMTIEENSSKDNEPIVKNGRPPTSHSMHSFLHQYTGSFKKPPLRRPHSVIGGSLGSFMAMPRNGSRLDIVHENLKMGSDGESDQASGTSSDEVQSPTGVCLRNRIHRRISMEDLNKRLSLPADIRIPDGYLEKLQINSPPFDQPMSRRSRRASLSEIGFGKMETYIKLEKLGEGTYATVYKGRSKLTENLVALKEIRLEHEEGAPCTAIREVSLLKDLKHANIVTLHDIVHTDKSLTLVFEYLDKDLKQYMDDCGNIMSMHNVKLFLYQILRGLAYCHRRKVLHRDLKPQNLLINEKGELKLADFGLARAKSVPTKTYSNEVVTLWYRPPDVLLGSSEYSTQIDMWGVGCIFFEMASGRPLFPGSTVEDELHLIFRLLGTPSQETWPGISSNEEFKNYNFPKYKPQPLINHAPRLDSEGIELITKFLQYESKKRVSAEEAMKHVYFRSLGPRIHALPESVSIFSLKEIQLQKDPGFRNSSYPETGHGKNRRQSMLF
CDK17/Cyclin Y, sequence (Q8ND76 whole entry partner): as the sequence (Q8ND76 whole entry partner) above

[9] = target: CDK18/Cyclin Y (Homo sapiens, UniProt Q07002); experiment: NanoBRET live-cell target engagement, CDK18-NanoLuc/Cyclin Y in HEK-293; format: binding; details: read-out: Inhibition at 10µM (%), CDK18/Y
CDK18/Cyclin Y, sequence (Q07002 whole entry): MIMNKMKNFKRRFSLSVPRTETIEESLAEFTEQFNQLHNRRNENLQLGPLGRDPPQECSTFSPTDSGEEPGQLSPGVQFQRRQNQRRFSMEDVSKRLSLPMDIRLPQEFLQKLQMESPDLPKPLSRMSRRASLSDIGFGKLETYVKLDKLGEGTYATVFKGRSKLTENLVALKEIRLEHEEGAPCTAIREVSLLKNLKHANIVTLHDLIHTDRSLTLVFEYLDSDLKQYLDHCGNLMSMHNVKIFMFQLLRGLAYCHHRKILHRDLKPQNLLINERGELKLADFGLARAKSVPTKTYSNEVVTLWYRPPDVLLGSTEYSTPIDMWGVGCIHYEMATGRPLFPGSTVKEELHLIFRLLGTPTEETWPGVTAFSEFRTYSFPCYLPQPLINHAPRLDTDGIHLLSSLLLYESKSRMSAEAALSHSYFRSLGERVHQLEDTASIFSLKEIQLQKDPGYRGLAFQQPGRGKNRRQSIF
CDK18/Cyclin Y, sequence (Q8ND76 whole entry partner): as the sequence (Q8ND76 whole entry partner) above

[10] = target: CDK20/Cyclin H (Homo sapiens, UniProt Q8IZL9); experiment: NanoBRET live-cell target engagement, NanoLuc-CDK20/Cyclin H in HEK-293; format: binding; details: read-out: Inhibition at 10µM (%), CDK20/H
[11] = target: CDK19/Cyclin C (Homo sapiens, UniProt Q9BWU1); experiment: NanoBRET live-cell target engagement, NanoLuc-CDK19/Cyclin C in HEK-293; details: for IC50: CDK19/C; for inhibition at 10 µM: read-out: Inhibition at 10µM (%), CDK19/C
CDK19/Cyclin C, sequence (Q9BWU1 whole entry): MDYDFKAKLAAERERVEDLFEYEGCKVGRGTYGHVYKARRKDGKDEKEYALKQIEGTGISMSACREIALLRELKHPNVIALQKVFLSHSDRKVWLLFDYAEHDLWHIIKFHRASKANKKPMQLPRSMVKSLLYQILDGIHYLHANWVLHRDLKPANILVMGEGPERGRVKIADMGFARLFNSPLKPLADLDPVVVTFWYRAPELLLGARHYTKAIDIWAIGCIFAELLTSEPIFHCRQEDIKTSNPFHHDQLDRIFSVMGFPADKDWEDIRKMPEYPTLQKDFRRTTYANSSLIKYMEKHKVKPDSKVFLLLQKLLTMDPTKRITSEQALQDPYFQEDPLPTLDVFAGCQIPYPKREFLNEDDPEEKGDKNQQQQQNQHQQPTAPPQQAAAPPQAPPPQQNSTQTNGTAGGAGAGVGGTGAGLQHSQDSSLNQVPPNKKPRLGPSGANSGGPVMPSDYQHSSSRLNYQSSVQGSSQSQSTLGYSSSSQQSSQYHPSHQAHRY
CDK19/Cyclin C, sequence (P24863 whole entry partner): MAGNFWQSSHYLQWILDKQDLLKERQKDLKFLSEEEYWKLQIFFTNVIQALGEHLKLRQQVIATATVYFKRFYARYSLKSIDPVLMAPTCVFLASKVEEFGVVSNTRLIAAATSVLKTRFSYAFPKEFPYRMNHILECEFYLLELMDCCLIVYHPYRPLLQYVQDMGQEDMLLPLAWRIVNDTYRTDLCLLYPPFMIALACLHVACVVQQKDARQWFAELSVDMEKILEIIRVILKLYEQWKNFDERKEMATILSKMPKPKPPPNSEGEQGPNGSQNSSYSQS

[12] = target: CDK10/Cyclin L2 (Homo sapiens, UniProt Q15131); experiment: NanoBRET live-cell target engagement, CDK10-NanoLuc/Cyclin L2 in HEK-293; details: read-out: Inhibition at 10µM (%), CDK10/L2
CDK10/Cyclin L2, sequence (Q15131 whole entry): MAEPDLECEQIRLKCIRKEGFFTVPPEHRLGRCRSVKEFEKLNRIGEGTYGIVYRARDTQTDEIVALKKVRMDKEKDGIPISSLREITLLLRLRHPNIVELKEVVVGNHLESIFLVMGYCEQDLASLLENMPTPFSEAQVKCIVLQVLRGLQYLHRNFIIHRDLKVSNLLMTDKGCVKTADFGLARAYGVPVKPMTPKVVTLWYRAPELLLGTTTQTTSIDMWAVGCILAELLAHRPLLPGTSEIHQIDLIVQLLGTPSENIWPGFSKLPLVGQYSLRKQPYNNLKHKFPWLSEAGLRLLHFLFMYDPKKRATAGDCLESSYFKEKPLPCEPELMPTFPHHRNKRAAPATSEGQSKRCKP

Compound `COC1CN(C(=O)c2ccc3c(N)ncc(-c4ccc(-c5cnn(C)c5)cc4)c3n2)C1` [CCT251545 analog] has an inhibition at 10 µM ([1]; experiment 1) of 95%, an inhibition at 10 µM ([1]; experiment 2) of 96.9% and an inhibition at 10 µM ([2]; average) of 7.2%. The inhibition at 10 µM ([2]; experiment 1) was 6.8%, the inhibition at 10 µM ([2]; experiment 2) was 7.5% and the inhibition at 10 µM ([3]; average) was 0.8%. For the same compound, the inhibition at 10 µM ([3]; experiment 1) was -1%, the inhibition at 10 µM ([3]; experiment 2) was 2.6% and the inhibition at 10 µM ([4]; average) was 0.563%. For the same compound, the inhibition at 10 µM ([4]; experiment 1) was 2.1%, the inhibition at 10 µM ([4]; experiment 2) was -1% and the inhibition at 10 µM ([5]; average) was -6.1%. It also gave an inhibition at 10 µM ([5]; experiment 1) of -1.1%, an inhibition at 10 µM ([5]; experiment 2) of -11% and an inhibition at 10 µM ([6]; average) of -9.7%. The inhibition at 10 µM ([6]; experiment 1) was -3.1%, the inhibition at 10 µM ([6]; experiment 2) was -16.3% and the inhibition at 10 µM ([7]; experiment 1) was 6.3%. The inhibition at 10 µM ([7]; experiment 2) was 1.1%, the inhibition at 10 µM ([8]; average) was 11.3% and the inhibition at 10 µM ([8]; experiment 1) was 8.9%. For the same compound, the inhibition at 10 µM ([8]; experiment 2) was 13.7%, the inhibition at 10 µM ([9]; average) was 0.4% and the inhibition at 10 µM ([9]; experiment 1) was -7.3%. For the same compound, the inhibition at 10 µM ([9]; experiment 2) was 8.1%, the inhibition at 10 µM ([10]; experiment 1) was 12.7% and the inhibition at 10 µM ([10]; experiment 2) was 4.1%. It also gave an IC50 ([11]; IC50 (nM), experiment 1) of 9 nM, an IC50 ([11]; IC50 (nM), experiment 2) of 3 nM and an IC50 ([11]; IC50 (nM), experiment 3) of 17 nM. For the same compound, the IC50 ([11]; IC50 for CDK/cyclin complexes, live HEK-293, 2 h, mean ± S.E.M. (n=3) or mean (n=2)) was 10 nM, the “CDK19 occupancy (%)” value ([11]; LOG10([CCT251545 analog]) (LOG10(µM)) 0.045757) was 84.8277% and the “CDK19 occupancy (%)” value ([11]; LOG10([CCT251545 analog]) (LOG10(µM)) 0.522879) was 83.6158%. The “CDK19 occupancy (%)” value ([11]; LOG10([CCT251545 analog]) (LOG10(µM)) 1) was 72.7094%, the “CDK19 occupancy (%)” value ([11]; LOG10([CCT251545 analog]) (LOG10(µM)) -0.43136) was 89.9173% and the “CDK19 occupancy (%)” value ([11]; LOG10([CCT251545 analog]) (LOG10(µM)) -0.90849) was 87.736%. For the same compound, the “CDK19 occupancy (%)” value ([11]; LOG10([CCT251545 analog]) (LOG10(µM)) -1.38561) was 82.404%, the “CDK19 occupancy (%)” value ([11]; LOG10([CCT251545 analog]) (LOG10(µM)) -1.86273) was 73.4365% and the “CDK19 occupancy (%)” value ([11]; LOG10([CCT251545 analog]) (LOG10(µM)) -2.33985) was 46.7764%. For the same compound, the “CDK19 occupancy (%)” value ([11]; LOG10([CCT251545 analog]) (LOG10(µM)) -2.81697) was 31.7498%, the “CDK19 occupancy (%)” value ([11]; LOG10([CCT251545 analog]) (LOG10(µM)) -3.29409) was 15.7537% and the “CDK19 occupancy (%)” value ([11]; LOG10([CCT251545 analog]) (LOG10(µM)) -3.77121) was 2.424%. It also gave an inhibition at 10 µM ([11]; average) of 92.3%, an inhibition at 10 µM ([11]; experiment 1) of 93.4% and an inhibition at 10 µM ([11]; experiment 2) of 91.3%. For the same compound, the inhibition at 10 µM ([12]; average) was -11.6%, the inhibition at 10 µM ([12]; experiment 1) was -2.4% and the inhibition at 10 µM ([12]; experiment 2) was -20.8%.
